Test results taken from ChEMBL document CHEMBL1201862, “PubChem BioAssay data set” (2004).
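Results reflect a 48-hour exposure of cells in 96-well plates to compound at five concentrations. The concentration for 50% growth inhibition is given as GI50.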 Activity calls are given as the source filed them. Rule as the data show it: active = GI50 up to about 1.1 µM and inactive = higher.

Key:
Experiment in all cases: growth of human tumour cells (NCI), 48 h
CAKI-1 = system: CAKI-1
HCT-15 = system: HCT-15
HOP-92 = system: HOP-92
LXFL 529 = system: LXFL 529
M19-MEL = system: M19-MEL
Malme-3M = system: Malme-3M
RPMI-8226 = system: RPMI-8226
SK-MEL-5 = system: SK-MEL-5
SN12C = system: SN12C
SNB-19 = system: SNB-19
SNB-78 = system: SNB-78
Hs-578T = system: Hs-578T
KM12 = system: KM12
MCF7 = system: MCF7
MDA-MB-231 = system: MDA-MB-231
MDA-N = system: MDA-N
NCI/ADR-RES = system: NCI/ADR-RES
RXF 393 = system: RXF 393
SR = system: SR
DMS-273 = system: DMS-273

| SMILES | GI50 (CAKI-1) | GI50 (HCT-15) [µM] | GI50 (HOP-92) | GI50 (LXFL 529) | GI50 (M19-MEL) | GI50 (Malme-3M) | GI50 (RPMI-8226) | GI50 (SK-MEL-5) | GI50 (SN12C) | GI50 (SNB-19) | GI50 (SNB-78) | GI50 (Hs-578T) | GI50 (KM12) | GI50 (MCF7) | GI50 (MDA-MB-231) | GI50 (MDA-N) | GI50 (NCI/ADR-RES) | GI50 (RXF 393) | GI50 (SR) | GI50 (DMS-273) |
| --- | --- | --- | --- | --- | --- | --- | --- | --- | --- | --- | --- | --- | --- | --- | --- | --- | --- | --- | --- | --- |
| CC1=NC(C(=O)O)Cc2c1[nH]c1ccccc21 (configuration not stated) | > 100 µM (inactive) | > 100 | 14.6 µM (inactive) | > 100 µM (inactive) | > 100 µM (inactive) | > 100 µM (inactive) | > 100 µM (inactive) | > 100 µM (inactive) | > 100 µM (inactive) | > 100 µM (inactive) | > 100 µM (inactive) |  |  |  |  |  |  |  |  |  |
| Fc1c(F)c(F)c(CSc2nc3ccccc3[nH]2)c(F)c1F | > 100 µM (inactive) | > 100 | 47 µM (inactive) |  |  | > 100 µM (inactive) | > 100 µM (inactive) | > 100 µM (inactive) | > 100 µM (inactive) | > 100 µM (inactive) |  | > 100 µM (inactive) | > 100 µM (inactive) | > 100 µM (inactive) | > 100 µM (inactive) | > 100 µM (inactive) | > 100 µM (inactive) | > 100 µM (inactive) | 59 µM (inactive) |  |
| O=C1NC2(CCCCC2)C2CCCCCC12 (configuration not stated) |  | > 100 |  | > 100 µM (inactive) |  | > 100 µM (inactive) |  |  | > 100 µM (inactive) | > 100 µM (inactive) | > 100 µM (inactive) |  | > 100 µM (inactive) |  |  |  |  | > 100 µM (inactive) | > 100 µM (inactive) |  |
| O=C1CN(c2ccccc2)C(=O)C1C(=O)Nc1ccc(Cl)c(Cl)c1 (configuration not stated) |  | 1.56 | 2.53 µM (inactive) | 1.65 µM (inactive) | 1.77 µM (inactive) |  |  | 1.36 µM (inactive) | 4.73 µM (inactive) | 4.62 µM (inactive) |  |  |  |  |  |  |  |  | 0.581 µM (active) | 3.1 µM (inactive) |
| CO/C(=N/N1CC1C(F)(F)F)c1ccncc1 (configuration not stated) | > 100 µM (inactive) | > 100 | > 100 µM (inactive) |  |  | > 100 µM (inactive) | > 100 µM (inactive) | > 100 µM (inactive) | > 100 µM (inactive) | > 100 µM (inactive) |  | > 100 µM (inactive) | > 100 µM (inactive) | > 100 µM (inactive) | > 100 µM (inactive) | > 100 µM (inactive) | > 100 µM (inactive) | 45.1 µM (inactive) | > 100 µM (inactive) |  |
| Cn1c2c(c3ccccc31)CCN(CCCCN1CCCCC1)C2=O | > 100 µM (inactive) | > 100 | > 100 µM (inactive) | > 100 µM (inactive) | 60.1 µM (inactive) |  | > 100 µM (inactive) | > 100 µM (inactive) | > 100 µM (inactive) | > 100 µM (inactive) | 43.1 µM (inactive) |  |  |  |  |  |  | > 100 µM (inactive) |  | > 100 µM (inactive) |
| CC1(C)C2CCC3(OCCO3)C1C(O)C2 (configuration not stated) | > 100 µM (inactive) | > 100 | > 100 µM (inactive) | > 100 µM (inactive) | > 100 µM (inactive) | > 100 µM (inactive) | > 100 µM (inactive) | > 100 µM (inactive) |  | > 100 µM (inactive) | > 100 µM (inactive) |  | > 100 µM (inactive) |  |  |  |  | > 100 µM (inactive) |  | > 100 µM (inactive) |
| COc1cc2c(cc1OC)C(Cl)C(c1cc(OC)c(OC)c(OC)c1)=C2Cl (configuration not stated) | 9.1 µM (inactive) | 14.6 | 4.73 µM (inactive) | 11.5 µM (inactive) | 14.8 µM (inactive) | 14.1 µM (inactive) | 8.71 µM (inactive) | 15.6 µM (inactive) | 13.9 µM (inactive) | 14.3 µM (inactive) | 12.2 µM (inactive) |  |  |  |  |  |  |  |  | 16.5 µM (inactive) |
| COc1ccc(N2C(=O)C3C=CC(n4[nH]c(=O)n(Cc5ccccc5)c4=O)CC3C2=O)cc1 (configuration not stated) | > 100 µM (inactive) | > 100 | > 100 µM (inactive) | > 100 µM (inactive) | > 100 µM (inactive) | > 100 µM (inactive) | > 100 µM (inactive) | > 100 µM (inactive) | > 100 µM (inactive) | > 100 µM (inactive) | > 100 µM (inactive) |  | > 100 µM (inactive) |  |  |  |  | > 100 µM (inactive) |  | > 100 µM (inactive) |
| CN(C)CCSc1nccc(-c2ccc(-c3ccnc(SCCN(C)C)n3)s2)n1 | 13.5 µM (inactive) | 4.65 | 10.9 µM (inactive) |  | 9.42 µM (inactive) | 11.9 µM (inactive) | 2.69 µM (inactive) | 15.9 µM (inactive) | 6.75 µM (inactive) | 11.1 µM (inactive) | 13 µM (inactive) |  | 4.91 µM (inactive) | 4.45 µM (inactive) |  |  | 4.91 µM (inactive) | 6.14 µM (inactive) |  | 8.3 µM (inactive) |
